Values of other authors as cited in patent US11612566B2, “Lamotrigine oral liquid suspension and use thereof” (OWP Pharmaceuticals, Inc., priority 2019, dated 2023).

Details: BCS class II molecule; poorly soluble in water

Structure (SMILES): Nc1nnc(-c2cccc(Cl)c2Cl)c(N)n1 [Lamotrigine, 6-(2,3-dichlorophenyl)-1,2,4-triazine-3,5-diamine]
- solubility: low
